{"source": "patent US20040101521A1", "about": "“Iron sequestration or elimination to reduce neurodegeneration or Parkinsons disease progression” (The Buck Institute for Research on Aging, priority 2002, published 2004)", "key": {"[1]": {"assay": "Total SN iron content by mass spectrometry and MRI in CQ-fed mice", "format": "in vivo, mouse", "conditions": "CQ 30 mg/kg daily oral gavage, 8 weeks, C57B1 mice", "experimental": "Mice were housed according to standard animal care protocols, fed ad libitum, kept on a 12-hr light/dark cycle and maintained in a pathogen-free environment in the Buck Institute Vivarium. Animals used for studies were young adults (2-6 months of age). […] For CQ studies, C57B1 mice were obtained from Jackson Labs and randomized for therapy trials. CQ was suspended in 0.05% carboxymethylcellulose (Sigma) and delivered via oral gavage at a daily dosage of 30 mg/kg as previously described for a period of 8 weeks (Cherny et al. (2001) Neuron 30: 665-676); controls received vehicle alone.\nMRI studies were performed using a Bruker AMX500 11.7 tesla MRI system as previously described (Gilissen et al. (1998) Am. J. Primatol. 45: 291-299). Brains were fixed as described above and MRI performed in the coronal plane. Comparisons of SN hypointensity (dark area) on T2-weighted MR samples encompassing SNc, SNr, and red nucleus were performed (IPLab Spectrum, Scientific Image Processing from Scanalytics, Inc.)(Morgan et al., 1998). Intensity was normalized using cortical white matter as control.\nSN was dissected, snap frozen in liquid nitrogen, lypholized and dry weight/tissue measured. Preweighed lypholized samples were next taken up in 0.1 ml of concentrated nitric acid (Aristar, BDH) and allowed to digest overnight. […]"}, "[2]": {"tested_on": "MPTP-induced oxidative stress", "assay": "SN GSH levels after MPTP", "format": "in vivo, mouse", "conditions": "CQ pretreated animals, 24 hrs after MPTP, n=6", "experimental": "Following MPTP or saline injection, GSH levels were measured in the SN by the method of Griffith (Griffith (1980) Anal. Biochem. 106; 207-212)."}, "[3]": {"tested_on": "MPTP-mediated oxidative stress", "assay": "Slot blot of 4-HNE-protein conjugates and protein carbonyls in SN after MPTP", "format": "in vivo, mouse", "conditions": "CQ pretreated animals, 24 hrs after MPTP, n=6", "experimental": "SN were dissected and homogenized in 10 mM HEPES-KOH, pH 7.2, 2 mM EDTA, 0.1% CHAPS, 5 mM dithiothreitol (DTT), 1 mM phenylmethylsulfonyl fluoride, 10 μg/ml pepstatin A, 10 μg/ml aprotinin, and 20 μg/ml leupeptin (Nicholson et al. (1995) Nature 376: 37-43). 15 μg of total protein from each sample was either run on a 15% SDS-PAGE gel (BioRad) and transferred to nitrocellulose membrane or directly slotted onto membrane. […] Autoradiography was performed with enhanced chemiluminescence (Amersham Pharmacia). For 4HNNE-protein conjugates and protein carbonyls, relative optical band density were quantified using a Chemilmager 5500 (Alpha Innotech Corporation). Reported values are the results of three independent experiments."}, "[4]": {"tested_on": "MPTP-induced dopaminergic SN cell loss", "assay": "Stereological TH+ SN neuron counts after MPTP", "format": "in vivo, mouse", "experimental": "Neuronal counts were performed on TH+ positive SN neurons using the unbiased dissector method (West (1993) Neurobiol. Aging 14: 275-285). Fixed coronal brain sections (40 μm) were immunostained with TH antibody (1:500 dilution, Chemicon), coverslipped in aqueous medium and TH+ cells counted from a total of 15-20 sections in each field per brain (i.e. every second section) at a magnification of 100× using the optical fractionator approach.\n(§1) Animals were injected with either 15 mg/kg body weight MPTP or saline every 2 hrs, 4 doses. Dopamine, DOPAC, and HVA or MPP+ from dissected striata were analyzed by I-PLC using a 5 micrometer C-18 reverse phase column and precolumn (Brownlee Labs) followed by electrochemical detection with a glassy carbon electrode (Klivenyi et al. (2000) J. Neurosci. 20: 1-7)."}, "[5]": {"tested_on": "MPTP-induced toxicity", "assay": "Striatal dopamine, DOPAC and HVA by HPLC after MPTP", "format": "in vivo, mouse", "experimental": "as §1"}, "[6]": {"tested_on": "monoamine oxidase-B", "assay": "MAO-B activity in brain homogenates", "format": "in vivo, mouse", "conditions": "CQ-fed, n=4", "experimental": "Brain homogenates were analyzed by the toulene extraction method using 10 μM 14-C labeled PEA as substrate (NEN, […]) as previously described (Wei et al. (1996) J. Neurosci. Res. 46: 666-673; Wei et al. (1997) J. Neurosci. Res. 50: 618-626). Values are reported as cpm/μg protein."}, "[7]": {"assay": "Open field analysis of spontaneous motor activity", "format": "in vivo, mouse", "conditions": "mice fed CQ up to 8 weeks vs. saline-fed, n=8", "experimental": "6-8 mice in each category were tested. Behavioral parameters were monitored in a Coulbourn Instrument Tru Scan activity monitor. Motor activities were recorded every 100 ms for a 10 minute period. Tru Scan 99 software was used to generate experimental protocols and to acquire and store the data. The data was exported to EXCEL and analyzed via one way ANOVA."}, "[8]": {"conditions": "Phase II, similar dosage, with B12 supplementation; cited from earlier work"}, "[9]": {"conditions": "lipophilic; cited from earlier work"}, "[10]": {"conditions": "Yassin et al. 2000; cited from earlier work"}, "[11]": {"tested_on": "plaque formation", "conditions": "Cherny et al. 2001; cited from earlier work"}, "[12]": {"conditions": "mouse, in vivo; cited from earlier work"}}}
{"compound": "Oc1c(I)cc(Cl)c2cccnc12", "note": "[CQ, 5-chloro-7-iodo-8-hydroxyquinoline]", "values": [{"measurement": "Reduction of total SN iron levels, CQ-fed vs. saline-fed animals", "setting": "[1]", "result": "approximately 30%"}, {"measurement": "Change in SN GSH following MPTP", "setting": "[2]", "result": "no significant changes"}, {"measurement": "Change in 4-HNE-protein conjugates in SN following MPTP", "setting": "[3]", "result": "no significant changes"}, {"measurement": "Change in protein carbonyl levels in SN following MPTP", "setting": "[3]", "result": "no significant changes"}, {"measurement": "Decrease in SN TH+ cell numbers following MPTP", "setting": "[4]; CQ-fed animals, 7 days after MPTP", "result": 25, "unit": "%"}, {"measurement": "SN TH+ cell numbers", "setting": "[4]; CQ-fed, MPTP-treated, n=5", "result": "11,462±915"}, {"measurement": "Difference in striatal dopamine levels, saline vs. CQ-fed", "setting": "[5]; absence of MPTP treatment", "result": "No significant difference"}, {"measurement": "Loss of striatal dopamine following MPTP", "setting": "[5]; animals pretreated with CQ, 7 days after MPTP", "result": 41, "unit": "%"}, {"measurement": "MAO-B activity", "setting": "[6]", "result": "4500±950", "unit": "cpm/μg protein"}, {"measurement": "Adverse behavioral effects in open field tests", "setting": "[7]", "result": "no significant signs of adverse behavioral effects"}, {"measurement": "Adverse effects attributable to CQ administration", "setting": "[8]", "result": "No adverse effects"}, {"measurement": "Blood-brain barrier passage", "setting": "[9]", "result": "freely crosses the blood-brain barrier"}, {"measurement": "Depletion in systemic iron levels", "setting": "[10]", "result": "does not result in depletion"}, {"measurement": "Levels of brain and serum vitamin B12", "setting": "[10]", "result": "lower levels"}, {"measurement": "Plaque formation and behavioral declines in AD transgenic mouse model", "setting": "[11]", "result": "inhibit plaque formation and accompanying behavioral declines"}, {"measurement": "Toxicity of the compound in mice", "setting": "[12]", "result": "lack of toxicity"}]}
